From patent publication US12037350B2, “Compositions and methods for the prevention and/or treatment of mitochondrial disease, including Friedreich's ataxia” (Stealth BioTherapeutics Inc., priority 2020, dated 2024)

System: frataxin deficient fibroblasts (GM03665) from Friedreich's ataxia patient
Assay: Frataxin Deficient Fibroblast Viability Assay (BSO Assay)
Format: cell-based
Conditions: for protection against BSO induced cell death (in words): BSO Assay, text statement; for EC50: Homo sapiens, Fibroblast, FA patient fibroblasts pretreated with compound, BSO 10 mM, MTT after 48 hrs
Description: Example 12: Frataxin Deficient Fibroblast Viability Assay (the “BSO Assay”)
This Example was used to evaluate the various new compositions for their potential efficacy in the treatment of Friedreich's Ataxia (FA or FRDA)—substantially as described in the above cited Reference (Matthias et al.).
The stock solutions of the test articles (and control compounds) were prepared in dimethyl sulfoxide (DMSO at 10 mM), Working stock solutions (2 times concentrated) were prepared on the day of the experiment in respective cell culture medium to be used for assay (detailed medium description below). A listing of compounds used as test articles in this Example 12 are found in Table 1, below.
A patient derived frataxin deficient fibroblast cell line was obtained from Coriell Institute. More specifically, the following cell lines/DNA samples were obtained from the NIGMS Human Genetic Cell Repository at the Coriell Institute for Medical Research: GM03665. To evaluate importance of various growth conditions on cell susceptibility to BSO toxicity cells were grown on:
MEM (Sigma-Aldrich) 15% Fetal Bovine Serum (FBS) without growth factors;
MEM (Sigma-Aldrich) 15% FBS with growth factors (Catalogue number 100-18B, Recombinant Human FGF-basic (154 a.a.) and catalogue number AF-100-15, Animal-Free Recombinant Human EGF from Peprotech);
MEM199/MEM EBS (Bioconcept Ltd.) 10% FBS, insulin 10 μg/ml, L-glutamine 2 mM with growth factors (Catalogue number 100-18B, Recombinant Human FGF-basic (154 a.a.) and catalogue number AF-100-15, Animal-Free Recombinant Human EGF from Peprotech).
To conduct an experiment, fibroblast cells (from all growth conditions) were seeded (100 μL (cells 3×10^3/well) on 96-well plates in MEM199/MEM EBS medium 10% FBS, insulin 10 μg/mL, L-glutamine 2 mM with growth factors and allowed to grow on plate for 24 hrs. After 24 hrs., media was removed and then test compounds of interest were added (100 μL, 2 times concentrated stock) to 96-well plates (end DM80 concentration not exceeding 0.5%) and incubated for 24 hours. Then L-buthionine-sulfoximine (BSO, from Acros Organics, Cat. No. 235520010) was added (100 μL, 2 times concentrated stock) at end concentrations ranging from 1 to 10 mM. Both test compounds and BSO were dissolved in MEM199/MEM EBS medium 10% FBS, insulin 10 μg/mL, L-glutamine 2 mM with growth factors. Cell viability was monitored and either after 24- or 48-hours cell viability was assayed by MTT (Thiazolyl blue tetrazolium bromide) assay. For the MTT assay, media was removed and 100 μL of MTT 1 mg/mL was added, incubated for 2 hours at +37° C., then medium was removed and 100 μL of isopropanol added to dissolve sediment. Absorption was measured at 570 (OD570) and 650 (QD650) nm wavelengths. Control cells (vehicle instead of BSO and compound) and vehicle control (with BSO, but vehicle instead of test compound) were treated in the same manner as ceils with BSO and compound. All cell media contained penicillin and streptomycin 100 U/mL each.
Absorption readouts were processed as follows: ValueΔ=ValueOD570−ValueOD650 and the obtained values were used to calculate cell viability as % of control cell (i.e., no BSO, no compound, just vehicle) viability.
Except as otherwise indicated in Table 1, all samples were run in at least 3 replicates for test compounds and at least 8 replicates for controls (i.e., both control (no BSO, no compound) and vehicle control (i.e., with BSO, no compound). Exact N per data points are indicated in the figures/table legends. Results for the compounds (test articles and controls) tested are listed in Table 1, below.
This is a cell-based assay measuring cytotoxicity which results from oxidative stress subsequent to depletion of endogenous glutathione defense mechanisms. The cells were primary Friedreich Ataxia (FA) patient fibroblasts which were incubated for 48 hrs. in BSO, an inhibitor of gamma glutamyl synthetase, an enzyme required for glutathione production. […]

| Compound | protection against BSO induced cell death (in words) | EC50 | protection against BSO induced cell death (in words) (listed as omaveloxolone) |
| --- | --- | --- | --- |
| COC1=C(OC)C(=O)C(CCCCCCCCCC(F)(F)F)=C(C)C1=O [Compound C, 2,3-dimethoxy-5-methyl-6-(10,10,10-trifluorodecyl)cyclohexa-2,5-diene-1,4-dione] | best of the test compounds | 128 nM | – |
| COC1=C(OC)C(=O)C(CCCCF)=C(C)C1=O [Compound J, 2-(4-fluorobutyl)-5,6-dimethoxy-3-methylcyclohexa-2,5-diene-1,4-dione] | not that effective | > 1000 nM | – |
| CC1(C)CC[C@]2(NC(=O)C(C)(F)F)CC[C@]3(C)[C@H](C(=O)C=C4[C@@]5(C)C=C(C#N)C(=O)C(C)(C)[C@@H]5CC[C@]43C)[C@@H]2C1 [Omaveloxolone, reference compound] | roughly equivalent in protection as compared with Vatiquinone | 149 nM | displayed anti-ferroptotic activity |
